Results from US6372772B1, “Inhibitors of redox signaling and methods of using same” (Prolx Pharmaceuticals Corporation, priority 1997, dated 2002).
Converted amounts (≈) assume the structure as drawn. Read-outs that look alike come from different tables or passages of the source.

Key:
[1] = target: T1, thioredoxin reductase/thioredoxin (Homo sapiens, UniProt Q16881); experiment: thioredoxin reductase/thioredoxin-dependent insulin reduction assay; type: biochemical
T1 sequence (Q16881 1-499 isoform Q16881-5): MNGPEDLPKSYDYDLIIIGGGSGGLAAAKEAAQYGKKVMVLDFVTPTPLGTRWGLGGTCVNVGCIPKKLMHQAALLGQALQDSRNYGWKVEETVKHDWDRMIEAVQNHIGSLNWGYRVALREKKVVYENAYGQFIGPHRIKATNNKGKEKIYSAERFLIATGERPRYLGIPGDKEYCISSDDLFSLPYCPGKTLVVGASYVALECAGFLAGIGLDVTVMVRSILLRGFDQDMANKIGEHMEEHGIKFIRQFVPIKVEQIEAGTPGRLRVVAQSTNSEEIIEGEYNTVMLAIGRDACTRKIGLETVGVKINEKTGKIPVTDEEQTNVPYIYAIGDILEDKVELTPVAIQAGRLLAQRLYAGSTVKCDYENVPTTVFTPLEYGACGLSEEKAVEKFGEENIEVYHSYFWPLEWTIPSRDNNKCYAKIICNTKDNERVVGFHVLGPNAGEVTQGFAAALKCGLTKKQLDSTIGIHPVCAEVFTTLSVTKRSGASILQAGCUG

[2] = tested on: NCI's panel of 60 human cancer cell lines; details: cited from earlier work
glutathione reductase = target: T2, glutathione reductase (Homo sapiens, UniProt P00390); experiment: glutathione reductase assay (DTNB reduction); type: biochemical
T2 sequence (P00390 1-479 isoform P00390-2): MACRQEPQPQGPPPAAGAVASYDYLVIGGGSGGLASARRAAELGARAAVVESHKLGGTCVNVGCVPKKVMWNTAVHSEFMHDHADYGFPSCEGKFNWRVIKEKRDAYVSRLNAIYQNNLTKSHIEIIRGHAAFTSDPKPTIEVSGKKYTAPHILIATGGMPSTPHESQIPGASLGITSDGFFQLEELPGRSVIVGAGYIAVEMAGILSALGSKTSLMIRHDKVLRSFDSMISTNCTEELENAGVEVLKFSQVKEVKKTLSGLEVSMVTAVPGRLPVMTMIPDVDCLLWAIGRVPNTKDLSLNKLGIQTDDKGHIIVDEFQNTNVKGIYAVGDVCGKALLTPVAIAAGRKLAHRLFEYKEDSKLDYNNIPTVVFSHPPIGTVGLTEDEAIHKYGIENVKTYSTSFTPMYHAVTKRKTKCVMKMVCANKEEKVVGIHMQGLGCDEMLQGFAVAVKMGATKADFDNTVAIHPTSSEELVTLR

leukemia cell line = details: cited from earlier work
[3] = tested on: thioredoxin-dependent cell proliferation; experiment: thioredoxin- versus serum-dependent cell proliferation in culture; type: cell-based
[4] = tested on: human MCF-7 breast cancer; experiment: MCF-7 breast cancer xenografts in scid mice; type: in vivo; details: for tumor inhibition: MCF-7 tumor system
tumors in the colon = experiment: min (multiple intestinal neoplasia) mouse chemoprevention; type: in vivo; details: in the diet at 250 ppm
Description: The min mouse has a germline mutation in the APC gene seen in human familial adenomatous polyposis (FAP). This model was chosen because of its genetic basis and as an alternative to chemically-induced models of colon cancer. The majority of the tumors that develops in the adult min mice are in the small intestine, although tumors are first diagnosed in the colon. FAP represents a high risk group of subjects with a readily identifiable early end-point marker that is suitable for trials of novel chemopreventive agents.

HL-60 leukemia = HL-60 leukemia xenografts in scid mice; type: in vivo; details: for antitumor activity against HL-60 leukemia: a number of the animals without tumor at day 45
thioredoxin reductase = target: T3, thioredoxin reductase (Homo sapiens, UniProt Q16881); experiment: biochemical
T3 sequence (Q16881 1-499 isoform Q16881-5): T1 sequence (Q16881 1-499 isoform Q16881-5)

[5] = tested on: MCF-7 breast cancer cells; details: read-out: EC50 for thioredoxin growth stimulation; cited from earlier work
[6] = Table I, 30 min preincubation, read-out: IC50 (μg/ml) in TR/Trx Assay (converted)
[7] = Table II, read-out: IC50TRTrx (μg/ml) (converted)
[8] = Table III, read-out: in vitro IC50 TR/Trx (μg/ml) (converted)
[9] = ratio of IC50 TR alone and IC50 TR/Trx assay
[10] = mean 50% growth inhibition concentration, entire cell line panel
[11] = Table II, read-out: IC50GR (μg/ml) (converted)
[12] = mean 50% growth inhibition concentration, leukemias

Compound | IC50 [1, 6] | IC50 [1, 7] | IC50 [1, 8] | TR/TRTrx [1, 9] | GI50 (μg/ml) All Tumors [2, 10] | IC50 (glutathione reductase; [11]) | GI50 (μg/ml) Leukemias (leukemia cell line; [12]) | further results
COC(=O)C(CBr)CBr [NSC 620109] | – | – | – | – | – | – | – | TR/TRTrx [1]: 0.3; IC50 ([1]; read-out: IC50 (μg/ml) in TR/Trx Assay (converted)): 1230 nM; IC50 ([1]; read-out: IC50TRTrx (μg/ml) (converted)): 1230 nM; IC50 ([1]; read-out: in vitro IC50 TR/Trx (μg/ml) (converted)): ≤ 1920 nM; GI50 (μg/ml) All Tumors [2]: 1.1 µg/mL (≈ 4.23 µM); IC50 (glutathione reductase; read-out: IC50GR (μg/ml) (converted)): 127000 nM; GI50 (μg/ml) Leukemias (leukemia cell line): 0.2 µg/mL (≈ 0.769 µM)
Cc1cc2c(c(O)c1-c1c(C)cc(O)c3c1C(=O)C=CC3=O)C(=O)C=CC2=O [NSC 208731] | 267 nM | 267 nM | ≤ 267 nM | 1.0 | 0.6 µg/mL (≈ 1.6 µM) | 13400 nM | 0.03 µg/mL (≈ 0.0801 µM) | –
C=C(CN(C)C)C(=O)c1ccc(C)cc1C [NSC 382000] | 460 nM | 460 nM | ≤ 460 nM | 1.0 | 1.0 µg/mL (≈ 4.6 µM) | 13800 nM | 0.1 µg/mL (≈ 0.46 µM) | –
CCC(C)SSc1ncc[nH]1 (centres unmarked) [IV-2, 1-methylpropyl 2-imidazolyl disulfide] | – | – | – | – | – | – | – | inhibition of thioredoxin- versus serum-dependent cell proliferation [3]: greater inhibition of thioredoxin than serum-dependent cell proliferation; T/C % tumor volume at day 28 ([4]; 5 mg/kg/day for 14 days): 56.7%; T/C % tumor volume at day 28 ([4]; 10 mg/kg/day for 14 days): 45.9%; T/C % tumor volume at day 28 ([4]; 15 mg/kg/day for 14 days): 2.3%; tumor inhibition [4]: 98%; antitumor activity against MCF-7 xenografts ([4]; scid mice): dose-dependent antitumor activity; size of remaining tumors (tumors in the colon; p<0.001 compared to control): significant reduction in the size of remaining tumors; reduction of number of tumors in the colon (tumors in the colon; p=0.0160): 70%; antitumor activity against HL-60 xenografts (HL-60 leukemia): dose-dependent antitumor activity; antitumor activity against HL-60 leukemia (HL-60 leukemia): showed antitumor activity
Cc1cccc2c1c1ccc3c(c1n2C)C(=O)C=CC3=O [NSC 645330] | 6900 nM | 6870 nM | ≤ 18200 nM | 26.5 | 1.5 µg/mL (≈ 5.45 µM) | 182000 nM | 0.3 µg/mL (≈ 1.09 µM) | IC50 (thioredoxin reductase): 182000 nM
thioredoxin | – | – | – | – | – | – | – | EC50 [5]: 350 nM
CC(C)(CN1C(=O)C(Cl)=C(Cl)C1=O)CN1C(=O)C(Cl)=C(Cl)C1=O [NSC 617145] | – | – | – | 0.8 | 4.4 µg/mL (≈ 11 µM) | – | 0.2 µg/mL (≈ 0.5 µM) | IC50 ([1]; IC50 (μg/ml) in TR/Trx Assay): 300 nM; IC50 ([1]; IC50TRTrx (μg/ml)): 300 nM; IC50 ([1]; in vitro IC50 TR/Trx (μg/ml)): ≤ 1250 nM; IC50 (glutathione reductase): 125000 nM
CCc1cccc(CC)c1NC(=O)/C(Cl)=C(/Cl)C(=O)O [NSC 618605] | 380 nM | 380 nM | ≤ 1580 nM | 0.8 | 7.2 µg/mL (≈ 22.8 µM) | 108000 nM | 2.5 µg/mL (≈ 7.91 µM) | –
Cc1ccc(NC(=O)/C(Cl)=C(/Cl)C(=O)O)cc1 [NSC 622378] | 438 nM | 438 nM | ≤ 1820 nM | 0.8 | 5.0 µg/mL (≈ 18.2 µM) | 73000 nM | 1.6 µg/mL (≈ 5.84 µM) | –
CC1COC2C3=C(C(=O)C=CC3=O)C3OC(=O)C4CCC5CC1CCC52C43 (centres unmarked) [NSC 401005] | 163 nM | 163 nM | ≤ 271 nM | 1.7 | 7.6 µg/mL (≈ 20.6 µM) | 40700 nM | 1.8 µg/mL (≈ 4.89 µM) | –
CCCC(=O)OC1C2C(CC1(C)C)C(=O)C13OC1C(=O)C1(CO1)C23C (centres unmarked) [NSC 163027] | 1090 nM | 1090 nM | ≤ 1440 nM | 13.2 | 3.1 µg/mL (≈ 8.9 µM) | 115000 nM | 0.6 µg/mL (≈ 1.72 µM) | IC50 (thioredoxin reductase): 14400 nM
c1ccc(CSSc2ncc[nH]2)cc1 [DLK-36, benzyl-2-imidazolyl disulfide] | – | – | 180000 nM | – | – | – | – | T/C % tumor volume at day 28 ([4]; 25 mg/kg/day for 14 days): 100.7%; T/C % tumor volume at day 28 ([4]; 40 mg/kg/day for 14 days): 23.7%; tumor inhibition [4]: 65%; antitumor activity against HL-60 leukemia (HL-60 leukemia): showed antitumor activity
O=[N+]([O-])C(=C(Sc1ccccc1)Sc1ccccc1)C(Cl)=C(Cl)Cl [NSC 665103] | 239 nM | 239 nM | ≤ 239 nM | 50.0 | 0.4 µg/mL (≈ 0.955 µM) | 76400 nM | 0.04 µg/mL (≈ 0.0955 µM) | IC50 (thioredoxin reductase): 11900 nM
